Data reported in patent US8435960B2, “Devices for improved wound management” (Lakewood-Amedex, Inc., priority 1998, dated 2013).
Strand notation (5' to 3'): a small letter for the sugar, then the base; units joined by * are phosphorothioate-linked, units joined directly phosphodiester-linked; [ ] holds rarer units or linkages, { } end groups; capitals alone tell only the bases. [invdT] = inverted (3'-3') thymidine; {BuOH} = butanol end-blocking group; m = 2'-O-methyl

What was measured:
Strep. mutans = assay: Stationary growth assay, Strep. mutans; format: cell-based; conditions: 16 A260 units; for CFU/ml: Strep. mutans 10^7 CFU/ml start; for Inhibition (%): Strep. mutans, approx. 24 hours
[1] = tested on: Pseudomonas aeruginosa (Strain Utah 4); assay: Burn wound infection model, subcutaneous (systemic) infection; format: in vivo, BALB/c female mice
[2] = tested on: Pseudomonas aeruginosa (Strain Utah 4); assay: Burn wound infection model, topical infection and topical treatment; format: in vivo, BALB/c female mice; conditions: for % Survival / No. Survivors/Total: topical infection, topical treatment
S. aureus ACC # 13301 = assay: Limited nutrient growth study, S. aureus; format: cell-based; conditions: approx. 24 hours; for Inhibition (%): oligonucleotide pH 1.5, 32 A260 units
[3] = tested on: P. aeruginosa ACC # 10145; assay: Limited nutrient growth study, P. aeruginosa; format: cell-based; conditions: approx. 24 hours; for Inhibition (%): oligonucleotide pH 1.5, 32 A260 units
S. aureus = assay: Stationary growth assay, S. aureus; format: cell-based; conditions: S. aureus 10^7 CFU/ml start, 32 A260 units
Staphylococcal furuncle = assay: Treatment of Staphylococcal furuncle in a human subject; format: in vivo
Pseudomonas aeruginosa [4] = assay: Topical treatment of outer ear infections in chinchillas; format: in vivo
Strep. pyogenes = assay: Treatment of Strep. pyogenes skin infection on a dog; format: in vivo; conditions: cut on abdomen, Neosporin for 3 days, nucleic acid pH 1.5, two treatments separated by 12 hours
Pseudomonas aeruginosa [5] = assay: Topical Pseudomonas burn model of infection in immuno-compromised mice (Example 9); format: in vivo; conditions: topical treatment at 4 hrs. and 8 hrs. post infection, pH 1.5
Pseudomonas aeruginosa [6] = assay: Systemic Pseudomonas burn model of infection (Example 9); format: in vivo, mice
[7] = topical treatment 1800 A/ml, individual mice # 1-3, NG = no growth
[8] = mice, burn wound infection with 5 LD50 P. aeruginosa, summary of all studies
[9] = pH of nucleic acid 3, 32 A260 units
[10] = pH of nucleic acid 4, 32 A260 units
[11] = pH of nucleic acid 5, 32 A260 units
[12] = pH of nucleic acid 7, 32 A260 units
[13] = after 16 hours from the initial treatment

“114.6: 2′-O-methyl substituted ribonucleotides phosphodiester linked with 5′ and 3′ inverted T end-blocking, sequence CGCCAT” was tested, and the CFU/ml (Strep. mutans; pH 3) was 0 CFU/ml, the CFU/ml (Strep. mutans; pH 7) was 10^7 CFU/ml and the “Inhibition (%)” value (Strep. mutans; pH 3) was 100%. For the same compound, the “Inhibition (%)” value (Strep. mutans; pH 7) was 0%.
In the case of “114.21: 2′-O-methyl substituted ribonucleotides phosphodiester linked with 5′ and 3′ inverted T end-blocking, sequence GGAACGCGCCATTGGTATATC (all 2'-O-methyl, all phosphodiester, 5' [invdT], 3' [invdT], T or U not given here)”, the CFU/ml (Strep. mutans; pH 3) is reported as 0 CFU/ml, the CFU/ml (Strep. mutans; pH 7) is reported as 10^7 CFU/ml and the “Inhibition (%)” value (Strep. mutans; pH 3) is reported as 100%. The “Inhibition (%)” value (Strep. mutans; pH 7) was 0%.
`CO[C@@H]1[C@H](O)[C@@H](COP(=O)(O)O)O[C@H]1n1ccc(=O)[nH]c1=O` [compound 6, 2′-O-methyl Uridine monophosphate] was tested, and the “# Survivors/Total Animals Tested” value ([1]; mouse, in vivo) was 0/5, the “% Survival” value ([1]; mouse, in vivo) was 0% and the therapeutic activity ([1]; mouse, in vivo) was “did not appear to show any therapeutic activity”.
For “HO—CH2CH2CH2CH2-ACg•CgC•CAU•Ugg-CH2CH2CH2CH2—OH [B2]”, the “# Survivors/Total Animals Tested” value ([1]; mouse, in vivo) was 28/30, the “No. Survivors/Total Animals” value ([1]; mouse, in vivo) was 5/5 and the survival rate ([1]; mouse, in vivo) was 100%. The “survival rate (efficacy)” value ([1]; mouse, in vivo, iv) was 80%, the “survival rate (efficacy)” value ([1]; mouse, in vivo, sc) was 40% and the “% Survival” value ([2]; concentration 335 A/ml) was 40%. For the same compound, the “No. Survivors/Total” value ([2]; concentration 335 A/ml) was 2/5, the “% Survival” value ([2]; concentration 1800 A/ml) was 90% and the “No. Survivors/Total” value ([2]; concentration 1800 A/ml) was 9/10. The “Microbiological quantitation of tissues, Blood” value [2, 7] was “devoid of any detectable CFUs”, the “Microbiological quantitation of tissues, Livers” value [2, 7] was “two out of three” and the “Microbiological quantitation of tissues, Spleens” value [2, 7] was “devoid of any detectable CFUs”.
With “HO—CH2CH2CH2CH2-ACg•CgC•CAU•Ugg-CH2CH2CH2CH2—OH [B7]” the “# Survivors/Total Animals Tested” value ([1]; mouse, in vivo) was 2/5, the “% Survival” value ([1]; mouse, in vivo) was 40% and the “% Survival” value ([2]; concentration 1800 A/ml) was 40%. For the same compound, the “No. Survivors/Total” value ([2]; concentration 1800 A/ml) was 2/5.
For “HO—CH2CH2CH2CH2-AUG-CH2CH2CH2CH2—OH [compound 2]”, the “# Survivors/Total Animals Tested” value ([1]; mouse, in vivo) was 3/5 and the “% Survival” value ([1]; mouse, in vivo) was 60%.
“HO—CH2CH2CH2CH2-CgC•CAU—CH2CH2CH2CH2—OH [compound 7]” was tested, and the “# Survivors/Total Animals Tested” value ([1]; mouse, in vivo) was 2/5 and the “% Survival” value ([1]; mouse, in vivo) was 40%.
With “HO—CH2CH2CH2CH2-G-CH2CH2CH2CH2—OH [compound 3]” the “# Survivors/Total Animals Tested” value [1, 8] was 3/5 and the “% Survival” value [1, 8] was 60%.
With “HO—CH2CH2CH2CH2-GGG-CH2CH2CH2CH2—OH [compound 5]” the “# Survivors/Total Animals Tested” value ([1]; mouse, in vivo) was 3/5 and the “% Survival” value ([1]; mouse, in vivo) was 60%.
In the case of “HO—CH2CH2CH2CH2—UUU—CH2CH2CH2CH2—OH [compound 4]”, the “# Survivors/Total Animals Tested” value ([1]; mouse, in vivo) is reported as 2/5 and the “% Survival” value ([1]; mouse, in vivo) is reported as 40%.
For “Homopolymer, 12 A: AAAAAAAAAAAA, 2′-O-methyl substituted ribonucleotides phosphodiester linked, 3′ and 5′ butanol end-blocking ({BuOH}-mAmAmAmAmAmAmAmAmAmAmAmA-{BuOH})”, the “Inhibition (%)” value (S. aureus ACC # 13301) was 100% and the “Inhibition (%)” value [3] was 100%.
In the case of “Homopolymer, 12 C: CCCCCCCCCCCC, 2′-O-methyl substituted ribonucleotides phosphodiester linked, 3′ and 5′ butanol end-blocking ({BuOH}-mCmCmCmCmCmCmCmCmCmCmCmC-{BuOH})”, the “Inhibition (%)” value (S. aureus ACC # 13301) is reported as 100% and the “Inhibition (%)” value [3] is reported as 100%.
“Homopolymer, 12 G: GGGGGGGGGGGG, 2′-O-methyl substituted ribonucleotides phosphodiester linked, 3′ and 5′ butanol end-blocking ({BuOH}-mGmGmGmGmGmGmGmGmGmGmGmG-{BuOH})” was tested, and the “Inhibition (%)” value (S. aureus ACC # 13301) was 100% and the “Inhibition (%)” value [3] was 100%.
With “Homopolymer, 12 U: UUUUUUUUUUUU, 2′-O-methyl substituted ribonucleotides phosphodiester linked, 3′ and 5′ butanol end-blocking (2'-O-methyl; butanol end caps)” the “Inhibition (%)” value (S. aureus ACC # 13301) was 100% and the “Inhibition (%)” value [3] was 100%.
In the case of “SEQ ID NO: 1: 2′-O-methyl ribonucleotides, phosphodiester linkage, 5′ and 3′ inverted T end-blocked, sequence CGCCATTGG (all 2'-O-methyl, all phosphodiester, 5' [invdT], 3' [invdT], T or U not given here)”, the “Inhibition of Growth (%)” value (S. aureus ACC # 13301; pH of nucleic acid 2, 32 A260 units, A625) is reported as 100%, the “Inhibition of Growth (%)” value (S. aureus ACC # 13301; [9]) is reported as 100% and the “Inhibition of Growth (%)” value (S. aureus ACC # 13301; [10]) is reported as 100%. For the same compound, the “Inhibition of Growth (%)” value (S. aureus ACC # 13301; [11]) was 16%, the “Inhibition of Growth (%)” value (S. aureus ACC # 13301; [12]) was 0% and the “Inhibition of Growth (%)” value ([3]; pH of nucleic acid 2, 32 A260 units) was 100%. For the same compound, the “Inhibition of Growth (%)” value [3, 9] was 100%, the “Inhibition of Growth (%)” value [3, 10] was 100% and the “Inhibition of Growth (%)” value [3, 11] was 0%. For the same compound, the “Inhibition of Growth (%)” value [3, 12] was 0%, the CFU/ml (S. aureus; pH of nucleic acid 2, approx. 24 hours) was 0 CFU/ml and the CFU/ml (S. aureus; pH of nucleic acid 3) was 10^3 CFU/ml. For the same compound, the CFU/ml (S. aureus; pH of nucleic acid 4) was 10^6 CFU/ml, the CFU/ml (S. aureus; pH of nucleic acid 5) was 10^7 CFU/ml and the CFU/ml (S. aureus; pH of nucleic acid 7) was 10^7 CFU/ml.
With “SEQ ID NO: 9: ACGCGCCATTAT, 2′-O-methyl substituted ribonucleotides, phosphodiester linked, end blocked with an inverted T at both the 5′ and 3′ ends (all 2'-O-methyl, all phosphodiester, 5' [invdT], 3' [invdT], T or U not given here)” the furuncle size (Staphylococcal furuncle; 1.5 cm furuncle, after 8 hours of treatment, 100 μl, 18.9 mMolar in water, pH 1.5) was “approximately 0.5 cm”, the “size of remaining pinkish area of the furuncle” value (Staphylococcal furuncle; [13]) was < 0.5 cm and the “swelling, pain, inflammation of furuncle” value (Staphylococcal furuncle; [13]) was “virtually no swelling, pain, or inflammation”. For the same compound, the “effectiveness in vehicle mixture (water/ethanol/propylene glycol) compared with water” value (Pseudomonas aeruginosa [4]; otoscopic examination, 2 mMolar in vehicle mixture vs 2.8 mMolar in water) was “slightly more effective”, the “outcome of ear infections by otoscopic examination” value (Pseudomonas aeruginosa [4]; two daily topical applications, pH 1.5, by day 7 post infection (4 days after treatment began)) was “completely cured” and the “outcome of Strep. pyogenes skin infection” value (Strep. pyogenes) was “completely cleared up the infection, swelling, inflammation, and sensitivity to touch”. For the same compound, the “survival of treated animals” value (Pseudomonas aeruginosa [5]; cyclophosphamide-treated mice, 10^9 CFU topically on burn) was 100%, the “systemic Pseudomonas infection in treated animals” value (Pseudomonas aeruginosa [5]) was “free of systemic Pseudomonas infections” and the “survival of treated mice” value (Pseudomonas aeruginosa [6]; 10^6 or 10^7 CFU S.C. after burn, treatment I.V. (40% of dose) and S.C., 40 treated mice, pH 1.5) was 100%. The “Pseudomonas bacteria in the spleen, liver, or blood” value (Pseudomonas aeruginosa [6]; treated surviving mice sacrificed and checked for sepsis) was “not detected”.
With “dihydroxydibutyldiphophate 2′-O-methyl uridine [BUB]” the “# Survivors/Total Animals Tested” value ([1]; mouse, in vivo) was 7/8 and the “% Survival” value ([1]; mouse, in vivo) was 87.5%.
